Results on two compounds are retold here after US20200221654A9, “APPLICATIONS OF ROOT-ADMINISTERED CHEMICAL HYBRIDIZING AGENTS IN PLANT BREEDING” (BAYER CROPSCIENCE AKTIENGESELLSCHAFT, priority 2016, published 2020).

Common to all, as to type: in vivo
For series [1], the system named is Wheat plants of the wheat varieties JB Asano and KWS Target. The series is described as follows: Male sterility after weekly root application (watering) of WL84811 to potted wheat plants, seed set of bagged ears (Example 2). The conditions noted are these: for Average sterility relative to control after CHA: 1.0 mg/plant WL84811 in 100 ml water per treatment, 11 weekly root treatments (total 11.0 mg/plant), Zadok stage 31 to 65. The protocol: Wheat plants of the wheat varieties JB Asano and KWS Target were grown in the greenhouse in standard planting pots, bottom perforated, edge length 12 cm, height 13 cm, with one plant per pot. Twelve pots were placed into a plastic tray, bottom non-perforated with fleece inlay. Sandy loam from the field was filled into the pots ca. 2 cm below edge. Plants were grown under standard growing conditions with respect to fertilizer, watering, disease and light management. Each plant per pot was reduced to 4 tillers. The treatment was watering each pot with 0.0 mg (control) or 1.0 mg WL84811 in 100 ml tap water per pot. Each treatment was repeated on 2 plants per variety, watering with the treatment was done once a week for 11 weeks starting at Zadoks growth stage 31 until growth stage 65 of the control group. Ears were bagged to avoid unwanted cross-pollination. Bags were removed at beginning of grain filling (Zadoks stage 75 and higher), seed set was determined at kernel maturity of the control group. When ears had set seed, the ears were threshed by hand and the kernels per plant were counted. A wheat ear is called completely sterile (=100% sterility) when no kernel was developed on a bagged ear. The average number of grains per plant of the control plants was set to 0% sterility.

Series [2] has as its system Wheat plants of the wheat varieties JB Asano and Apache. The series is described as follows: Male sterility after a single root application (watering) of Clofencet to potted wheat plants, seed set of bagged ears (Example 1). Particulars: for Average sterility relative to control: 1 root treatment, Zadok stage 31. The protocol: Wheat plants of the wheat varieties JB Asano and Apache were grown in the greenhouse in standard planting pots, bottom perforated, edge length 12 cm, height 13 cm, with one plant per pot. Twelve pots were placed into a plastic tray, bottom non-perforated with fleece inlay (e.g. available at Hermann Meyer KG unter article no. 44 54 11). Standard greenhouse growing substrate soil (bedding substrate 1 of Klasmann-Deilmann GmbH) was filled into the pot ca. 2 cm below edge. Plants were grown under standard growing conditions with respect to fertilizer, watering, disease and light management. Each plant was reduced to 4 tillers. The necessary active amount of Clofencet per plant was calculated according to the standard foliar spray application protocol of 5.42 kg per hectare assuming 400 ears per square meter taking the higher tiller number of potted plants into account (average number of ears per plant in the field is typically 1.15 but it was 4 in our potted plants, so the dose rate for root application per plant, i.e. per pot, was adjusted upward). At Zadoks growth stage 31 the plants were watered with 0.0 mg (control), 10.84 mg, 16.26 mg and 21.68 mg, respectively, of Clofencet in 200 ml tap water per pot. Each treatment was repeated on 12 plants, whereas the highest concentration was repeated on 24 plants. Before flowering time (Zadoks stage 57 of control group) ears were bagged to avoid unwanted cross-pollination. Bags were removed at beginning of grain filling (Zadoks stage 75 and higher), seed set was determined at kernel ripeness of the control group. When ears carried mature seeds, the ears were threshed with a hand-threshing device (Baumann Dreschhexe #4.701.200) and the kernels per plant were counted. A wheat ear is called completely sterile (=100% sterility) when no kernel developed on a bagged ear. The average number of grains per plant of the control plants was set to 0% sterility.

Series [3] shares this test system. Put plainly: Female fertility: seed set of Clofencet-treated male sterile plants after pollination with pollen from an untreated control plant (Example 3). The conditions noted are these: for Average seed set of Clofencet treated plants after pollination with wheat pollen (rel. to control): 1 root treatment, Zadok stage 31. The text has this: Male sterile plants generated by Clofencet treatment as described in Example 1 were used. Before single bagging the 4 ears of each plant at Zadoks stages 55-59, flowers were clipped to facilitate pollination. At flowering time (spikelets wide open) three male-sterile ears (no pollen in the transparent bags) were pollinated with pollen from an untreated control plant of the same wheat variety. One sterile ear was not pollinated to cross check the efficacy of the Clofencet treatment. Bags were removed at beginning of grain filling (Zadoks stage 75 and higher), seed set was determined at kernel maturity. If ears had set seed, the ears were threshed with a hand-threshing device (Baumann Dreschhexe #4.701.200) and the kernels per plant were counted. The average number of grains per plant of the control plants was set to 100% seed set.

Where [4] appears, read: variety Apache, 10.84 mg/plant Clofencet in 200 ml water.
The mark [5] stands for this setting: variety Apache, 16.26 mg/plant Clofencet in 200 ml water.
Setting [6] is: variety Apache, 21.68 mg/plant Clofencet in 200 ml water.
Setting [7] is: variety JB Asano, 10.84 mg/plant Clofencet in 200 ml water.
Setting [8] is: variety JB Asano, 16.26 mg/plant Clofencet in 200 ml water.
[9] abbreviates: variety JB Asano, 21.68 mg/plant Clofencet in 200 ml water.

Each structure is given as a SMILES string.

Regarding `O=C(O)C1CNC1` [WL84811, azetidine-3-carboxylic acid], in series [1] (regular weekly watering with 1.0 mg, root treatment), the “generation of male sterility” value is “very effective to generate male sterility”. Besides, the “Average sterility relative to control after CHA” value in series [1] (variety JB Asano) and in series [1] (variety KWS Target) was 100% in each case. The “seed set of treated plants bagged before flowering” value in series [1] (weekly 1.0 mg root treatment, bagged before flowering) is “No plant”.
As to `CCc1c(C(=O)O)c(=O)cnn1-c1ccc(Cl)cc1` [Clofencet, 2-(4-chlorophenyl)-3-ethyl-2,5-dihydro-5-oxopyridazine-4-carboxylic acid], the “further effect on male sterility at higher doses (data not shown)” value in series [2] (doses of active substance higher than 21.68 mg per plant) was “do not have any further positive effect”. The “male sterility” value in series [2] (single root application dose of 10.84 mg per plant with four tillers at growth stage 31) is reported as “satisfying amount of average male sterility”; in series [2] (single root application of 16.26 mg per plant at growth stage 31), roughly 100%. The “Average sterility relative to control” value in series [2] (setting [4]) came out at 91.88%; in series [2] (setting [5]), 98.69%; in series [2] (setting [6]), 99.64%; in series [2] (setting [7]) it was 94.72%; in series [2] (setting [8]) it was 99.96%; in series [2] (setting [9]), 98.65%. Besides, in series [2] (watered once with an active dose of 16.26 mg or more in Zadoks stage 31), the “seed set of bagged plants” value is given as “Almost no plants”. Besides, the “female fertility of the treated plants” value in series [3] (root treatment once, pollinated with pollen of untreated control plants) was “does not harm the female fertility”. Further, the “seed set compared to the control with 100% seed set” value in series [3] (variety Apache) is listed as “even seems to enhance seed set”. Besides, the “Average seed set of Clofencet treated plants after pollination with wheat pollen (rel. to control)” value in series [3] (setting [4]) is 101%; in series [3] (setting [5]), 115%; in series [3] (setting [6]), 107%; in series [3] (setting [7]), 98%; in series [3] (setting [8]) it was 94%; in series [3] (setting [9]), 75%.
